Reference: US7576102B2, “Biaryl substituted nitrogen containing heterocycle inhibitors of LTA4H for treating inflammation” (deCODE genetics ehf, priority 2005, dated 2009)
Counter-ions that a name gives are not always drawn.

Legend:
[1] = target: T1, human LTA4 hydrolase (Homo sapiens, UniProt P09960); experiment: In vitro assay testing inhibitory activity against purified recombinant human LTA4 hydrolase; format: biochemical; conditions: 200 nM recombinant enzyme, 2 μM LTA4, LTB4 by LC-MS/MS; read-out: IC50(μM) (hLTA4H)
T1 construct: A human LTA4 hydrolase full-length cDNA clone (NM_000895) was purchased from OriGene Technologies; made in house; host or cells: Escherichia coli BL21-AI
T1 sequence (P09960 1-611): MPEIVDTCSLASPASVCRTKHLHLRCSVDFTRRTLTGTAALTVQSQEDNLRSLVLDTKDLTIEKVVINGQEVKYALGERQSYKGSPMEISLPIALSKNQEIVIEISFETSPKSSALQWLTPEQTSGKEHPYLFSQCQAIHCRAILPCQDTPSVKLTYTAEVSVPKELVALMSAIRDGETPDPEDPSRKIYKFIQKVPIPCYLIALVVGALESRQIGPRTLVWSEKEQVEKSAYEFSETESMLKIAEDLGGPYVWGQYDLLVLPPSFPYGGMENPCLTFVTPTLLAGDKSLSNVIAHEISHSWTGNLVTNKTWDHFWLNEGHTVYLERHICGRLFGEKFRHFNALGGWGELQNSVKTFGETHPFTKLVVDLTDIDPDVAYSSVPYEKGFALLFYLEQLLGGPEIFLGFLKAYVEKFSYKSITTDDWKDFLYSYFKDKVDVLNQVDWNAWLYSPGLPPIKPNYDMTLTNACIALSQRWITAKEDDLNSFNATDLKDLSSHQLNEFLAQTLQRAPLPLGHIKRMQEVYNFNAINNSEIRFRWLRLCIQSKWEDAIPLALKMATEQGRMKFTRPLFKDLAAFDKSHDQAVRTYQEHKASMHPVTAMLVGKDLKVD
From the text: (1) In vitro Assay Testing Inhibitory Activity Against Purified Recombinant Human LTA4 Hydroase:
A human LTA4 hydrolase full-length cDNA clone (NM_000895) was purchased from OriGene Technologies (Rockville, Md.). The gene was amplified by polmerase chain reaction and transferred via pDONR201 into the bacterial expression vector pDEST17 by recombination (both plasmids from Invitrogen, Carlsbad, Calif.). The resulting construct was transformed into Escherichia coli BL21-AI (Invitrogen), and expression was induced by chemical induction with arabinose. The recombinant enzyme was purified by chromatography on a FPLC system (Amersham Biosciences, Uppsala, Sweden) using immobilized metal affinity chromatography (Ni-NTA Superflow, Qiagen, Hilden, Germany) and anion exchange chromatography (MonoQ HR 10/10, Amersham Biosciences).
The compounds of the invention were incubated in a series of dilutions with 200 nM of recombinant enzyme in assay buffer (100 mM Tris-HCl, 100 mM NaCl, 5 mg/ml fatty-acid free BSA, 10% DMSO, pH 8.0) for 10 min at room temperature to allow binding between LTA4 hydrolase and the inhibitors. LTA4 was prepared by alkaline hydrolysis of LTA4 methyl ester (Biomol, Plymouth Meeting, Pa., or Cayman Chemicals, Ann Arbor, Mich.). A solution of 10 μg of the ester was dried under a nitrogen stream and redissolved in 60 μl of a solution of 80% aceton and 20% 0.25 M NaOH. After incubation for 40 min at room temperature the resulting approximately 500 μM tock of LTA4 was kept at −80° C. for no more than a few days prior to use.
Immediately before the assay, LTA4 was diluted to a concentration of 10 μM in assay buffer (without DMSO) and added to the reaction mixture to a final concentration of 2 μM to initiate the enzyme reaction. After incubation for 120 sec at room temperature, the reaction was stopped by adding 2 volumes of chilled quenching buffer, containing acetonitrile with 1% acetic acid and 225 nM LTB4-d4 (Biomol). The samples were then kept at 4° C. over night to complete protein precipitation and centrifuged for 15 min at 1800 g. LTB4 formed was measured by LC-MS/MS using LTB4-d4 as an internal standard and an external LTB4 standard (Biomol) as reference. Briefly, the analyte was separated from LTB4 isomers formed by spontaneous hydrolysis of LTA4 using isocratic elution (modified protocol from Mueller et al. (1996), J. Biol. Chem. 271, 24345-24348) on a HPLC system (Waters, Milford, Mass.) and analyzed on a tandem quadrupole mass spectrometer (Waters). MRM transitions followed on 2 channels were 335.2>195.3 (LTB4) and 339.2>197.3 (LTB4-d4). Based on the amounts of LTB4 found at each inhibitor concentration, a dose-response curve was fitted to the data and an IC50 value was calculated.

[2] = tested on: LTB4 in human whole blood; experiment: Ex vivo assay testing inhibitory activity in human whole blood after stimulation with calcium ionophore (LTB4 by immunoassay); format: cell-based; conditions: 20 μM ionomycin, read-out: IC50(μM) (hWB)
Experimental: (2) Ex vivo Assay Testing Inhibitory Activity in Human Whole Blood After Stimulation with Calcium Ionophor: Human blood was collected in heparin-containing Vacutainer tubes. For each sample, 200 μl of blood were dispensed into a pre-warmed plate and 188 μl of RPMI-1640 medium (Invitrogen) containing 20 μg/ml Indomethacin (Sigma, St. Louis, Mo.) were added. Then 4 μl of a series of compound dilutions (in DMSO) were added, followed by a 15 min incubation at 37° C. with gentle shaking. After that, blood samples were stimulated by adding lonomycin (Calbiochem) to a final concentration of 20 μM. After another incubation at 37° C. for 30 min, samples were centrifuged for 5 min at 1800 g and 4° C. Supernatants were taken and LTB4 concentrations were determined using a commercially available enzyme-linked immunoassay (R&D Systems, Minneapolis, Minn.) according to the manufacturer's instructions. Results obtained for different concentrations of hydrolase inhibitor were then used to fit a dose-response curve and calculate an IC50 value.

[3] = tested on: colitis symptoms; conditions: eight weeks of treatment; cited from earlier work
[4] = tested on: ionophore-induced LTB4 production; conditions: oral administration; cited from earlier work
[5] = tested on: ionophore-induced LTB4 production; conditions: oral administration; cited from earlier work; remark: listed apart in the source

Structure (SMILES) | IC50 [1] [µM] | also measured
O=C(O)CCCN1CC[C@@H](Oc2ccc(Cc3ccccc3)cc2)C1 [Example 4, 4-[(R)-3-(4-Benzyl-phenoxy)-pyrrolidin-1-yl]-butyric acid hydrochloride salt] | < 5 | –
c1ccc(Cc2ccc(O[C@@H]3CCNC3)cc2)cc1 [Example 2, (R) 3-(4-Benzyl-phenoxy)-pyrrolidine hydrochloride salt] | < 5 | IC50 [2]: < 5 µM
CN(CCCOc1ccc(Cc2ccccc2)cc1)CCC(=O)O.Cl [SC57461] | – | colitis symptoms in a primate model [3]: significantly improved colitis symptoms; inhibition of ionophore-induced LTB4 production in rat peritoneum in vivo [4]: inhibition of ionophore-induced LTB4 production; inhibition of ionophore-induced LTB4 production in mouse blood ex vivo [5]: inhibition of ionophore-induced LTB4 production
O=C(O)CCCN1CCC(Oc2ccc(Oc3ccccc3)cc2)CC1 [Example 6, 4-[4-(4-Phenoxy-phenoxy)-piperidin-1-yl]-butyric acid hydrochloride salt] | < 5 | –
O=C(O)CCN1CCC(Oc2ccc(Oc3ccccc3)cc2)CC1 [Example 5, 3-[4-(4-Phenoxy-phenoxy)-piperidin-1-yl]-propionic acid] | < 5 | –
c1ccc(Cc2ccc(O[C@H]3CCNC3)cc2)cc1 [Example 1, (S) 3-(4-Benzyl-phenoxy)-pyrrolidine hydrochloride salt] | < 5 | IC50 [2]: < 5 µM
c1ccc(Oc2ccc(OC3CCNCC3)cc2)cc1 [Example 3, 4-(4-Phenoxy-phenoxy)-piperidine hydrochloride salt] | < 5 | IC50 [2]: < 5 µM

Now from value to compound, other results behind:

IC50 [1] [µM] | Structure (SMILES) | also measured
< 5 | O=C(O)CCCN1CC[C@@H](Oc2ccc(Oc3ccc(Cl)cc3)cc2)C1 [Example 14, 4-{(R)-3-[4-(4-Chloro-phenoxy)-phenoxy]-pyrrolidin-1-yl}-butyric acid HCl] | –
< 5 | NC(=O)CCCN1CC[C@@H](Oc2ccc(Oc3ccccc3)cc2)C1 [Example 13, 4-[(R)-3-(4-Phenoxy-phenoxy)-pyrrolidin-1-yl]-butyramide] | –
< 5 | O=C(O)CCCN1CC[C@@H](Oc2ccc(Oc3ccccc3)cc2)C1 [Example 12, 4-[(R)-3-(4-Phenoxy-phenoxy)-pyrrolidin-1-yl]-butyric acid hydrogen chloride] | –
< 5 | c1ccc(Oc2ccc(O[C@@H]3CCNC3)cc2)cc1 [Example 11, (R)-3-(4-Phenoxy-phenoxy)-pyrrolidine hydrochloride] | –
< 5 | Clc1ccc(Oc2ccc(OC3CCNCC3)cc2)cc1 [Example 10, 4-[4-(4-Chloro-phenoxy)-phenoxy]-piperidine hydrochloride] | –
5 to 20 | FC(F)(F)Oc1ccc(Oc2ccc(OC3CCNCC3)cc2)cc1 [Example 9, 4-[4-(4-Trifluoromethoxy-phenoxy)-phenoxy]-piperidine hydrochloride] | –
< 5 | c1ccc(-c2ccc(Oc3ccc(OC4CCNCC4)cc3)cc2)cc1 [Example 8, 4-[4-(Biphenyl-4-yloxy)-phenoxy]-piperidine hydrochloride salt] | IC50 [2]: < 5 µM
< 5 | FC(F)(F)c1ccc(Oc2ccc(OC3CCNCC3)cc2)cc1 [Example 7, 4-[4-(4-Trifluoromethyl-phenoxy)-phenoxy]-piperidine hydrochloride salt] | –
